By pKi is commonly meant the Ki on a negative log10 scale, so that one unit is a factor of ten. Usually pIC50 stands for −log10 of the IC50, conventionally taken in molar units. Low values mean a high IC50, high ones a low IC50. One may read the solubility as the dissolved amount per volume that the medium holds. Low readings indicate little dissolved substance, high ones much dissolved substance.

pIC50, pKi: −log10 of the molar value.

Series [1] has as its target T1, MMP-1 (human interstitial collagenase) (Homo sapiens, UniProt P03956).
T1 construct: truncated recombinant enzyme encompassing residues 101-269
T1 sequence (P03956 101-269): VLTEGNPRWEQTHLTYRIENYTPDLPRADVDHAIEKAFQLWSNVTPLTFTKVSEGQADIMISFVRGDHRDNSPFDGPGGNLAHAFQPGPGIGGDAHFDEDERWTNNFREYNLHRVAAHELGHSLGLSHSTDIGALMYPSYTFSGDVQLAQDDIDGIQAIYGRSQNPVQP
The series can be described thus: Biochemical Assay (Protocol A): inhibition of human collagenase, fluorimetric peptide substrate. To be noted: MMP-1, pH 7.4, 37° C. From the text: (§1) As mentioned above, although low molecular weight MMP inhibitors, including hydroxamates of general formula (A), are already known, there is a strong need for better and diversified molecules for their use in medicine, that is in particular in the control or prevention of degenerative joint diseases such as rheumatoid arthritis and osteoarthritis, or in the management of multiple sclerosis, or in the treatment of invasive tumors. […] For example, the following protocol was used to assess the biochemical activity of compounds of formula (I) against MMP-1, MMP-2, and MMP-3 (respectively, human interstitial collagenase, gelatinase A, and stromelysin-1).
(§2) Human gelatinase-A (MMP-2) was obtained as pro-enzyme (72 kDa) and was activated with 1 mM 4-aminophenylmercuric acetate for 30 min at 37° C. immediately prior to use. Human stromelysin-1 (MMP-3) was obtained as a recombinant pro-enzyme isolated either from E. coli or from baculovirus infected Sf9 insect cells and activated either by heat (1 h, 55° C.) or by 5 mg/l trypsin (30 min, 37° C.) before addition of soybean trypsin inhibitor, finally removed by centrifugation.
(§3) All enzyme assays to determine values of the enzyme-inhibitor dissociation constants were performed using the peptide substrate (7-methoxycoumarin-4-yl)Acetyl-Pro-Leu-Gly-Leu-(3-[2,4-dinitrophenyl]-L-2,3-diaminopropionyl)-Ala-Arg-NH2 (Mca-Pro-Leu-Gly-Leu-Dpa-Ala-Arg--NH2) (C. G. Knight et al., FEBS Lett. 296:263-266, 1992). The enzymes cleave at the Gly-Leu bond removing the internally quenching Dpa group. The release of the highly fluorescent peptide Mca-Pro-Leu was followed fluorimetrically setting the excitation wavelength at 326 nm (bandwidth 5 nm) and the emission at 392 nm (bandwidth 20 nm).
(§4) Continuous fluorescence assay was carried out using a Perkin Elmer LS-50 Fluorescence Spectrophotometer fitted with a thermostatted four position stirring cell changer. Inhibitors were dissolved in the assay buffer ([…] Tris/HCl pH 7.4 containing 0.15 M NaCl, 10 mM CaCl2, 0.01 mM ZnCl2 and 0.05% Brij 35) thermostatted at 37° C. The reaction was started by the addition of substrate ([…]), followed by the addition of the enzyme (e.g. 1.0 nM collagenase, 0.04 nM gelatinase, or 3.0 nM stromelysin) and the increase in fluorescence was monitored over 30 min. The run was repeated at different concentrations of inhibitors in the range 0.1-10000 nM and data at inhibitor concentration in the region if their enzyme-inhibitor dissociation constants were used for calculation.
(§5) Substrate consumption was within 5% of the initial concentration and data outside this range were discarded. The Michaelis constants (Km) for the enzyme-substrate complexes is […] or greater (C. G. Knight et al., reference above), so that the factor (1+S/Km) can be approximated to unity without appreciable error.

The target in series [2] is T2, MMP-2 (human gelatinase A) (Homo sapiens, UniProt P08253).
T2 sequence (P08253 110-660): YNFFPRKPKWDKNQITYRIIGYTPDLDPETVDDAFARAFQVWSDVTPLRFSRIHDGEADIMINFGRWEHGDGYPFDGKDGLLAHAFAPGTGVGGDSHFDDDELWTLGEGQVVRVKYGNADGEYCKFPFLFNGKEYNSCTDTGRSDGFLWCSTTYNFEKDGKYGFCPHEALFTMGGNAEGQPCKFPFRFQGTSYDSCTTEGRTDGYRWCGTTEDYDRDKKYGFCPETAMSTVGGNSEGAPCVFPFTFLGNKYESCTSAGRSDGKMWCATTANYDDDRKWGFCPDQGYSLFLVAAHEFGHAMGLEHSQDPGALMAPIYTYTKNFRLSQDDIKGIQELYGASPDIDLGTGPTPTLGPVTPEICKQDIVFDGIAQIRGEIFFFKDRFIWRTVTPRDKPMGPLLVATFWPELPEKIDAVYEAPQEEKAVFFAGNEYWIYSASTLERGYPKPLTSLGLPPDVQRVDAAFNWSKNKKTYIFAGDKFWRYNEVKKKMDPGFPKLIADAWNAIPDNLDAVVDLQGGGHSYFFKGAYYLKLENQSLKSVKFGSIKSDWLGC
The experiment in a line: Biochemical Assay (Protocol A): inhibition of human gelatinase A, fluorimetric peptide substrate. Particulars: MMP-2, pH 7.4, 37° C.
Source text: as §1, §2, §3, §4, §5

In series [3] the target is T3, MMP-3 (human stromelysin-1) (Homo sapiens, UniProt P08254).
T3 construct: host or cells: E. coli or baculovirus-infected Sf9 insect cells
T3 sequence (P08254 100-477): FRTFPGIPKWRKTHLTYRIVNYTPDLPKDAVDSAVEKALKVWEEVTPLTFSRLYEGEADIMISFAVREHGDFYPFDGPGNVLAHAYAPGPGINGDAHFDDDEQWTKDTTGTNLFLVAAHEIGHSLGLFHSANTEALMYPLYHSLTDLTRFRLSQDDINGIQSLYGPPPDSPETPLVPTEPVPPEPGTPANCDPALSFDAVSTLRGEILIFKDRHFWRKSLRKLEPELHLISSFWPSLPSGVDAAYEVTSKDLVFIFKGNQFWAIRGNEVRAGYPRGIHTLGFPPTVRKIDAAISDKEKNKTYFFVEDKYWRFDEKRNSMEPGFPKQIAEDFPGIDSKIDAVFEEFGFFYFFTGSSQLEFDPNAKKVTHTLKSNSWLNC
The experiment in a line: Biochemical Assay (Protocol A): inhibition of human stromelysin-1, fluorimetric peptide substrate. To be noted: MMP-3, pH 7.4, 37° C.
Source text: as §1, §2, §3, §4, §5

The subject of series [4] is release of TNF from THP-1 cells. The series can be described thus: Cellular Assay (Protocol B): inhibition of release of TNF from LPS-stimulated THP-1 cells. Format: cell-based. Particulars: Homo sapiens, LPS 5 microg/mL, 4 h. As for the experimental part:
For example, the following cell-based assay was used to assess such activity:
THP-1 cells, cultured in RPMI 1640 supplemented with 10% FCS, were distributed into 24-well plates, 1 mL of a suspension of 1×10^6 cells/mL in each well. Compounds to be tested, dissolved in DMSO and diluted with the culture medium (1% final DMSO concentration) were added. Plates were incubated for 30 min at 37° C. in 5% CO2, and lipopolisaccharide (LPS 0111:B4, 5 microg/mL) was added as a stimulant. After a further 4 h incubation, cells were harvested, centrifuged (2,000 rpm, 7 min), and the surnatant was collected and freezed (-20° C.) until analysis. Analysis was run by classical ELISA methodology (monoclonal anti-TNF-a antibody, rabbit capture policlonal antibody, and peroxidated anti-rabbit antibody).

The next series is described as follows: Aqueous solubility. Format: physicochemical. To be noted: water, pH 7.0, 25° C. How it is done:
Further, several compounds of formula (I), in particular when R2 is hydroxy, and when R1 is hydroxymethyl, have enhanced water solubility as compared to the vast majority of MMP inhibitors of the prior art. An aqueous solubility threshold, which may vary widely but can be roughly set in the range of 1-10 mg/mL, makes systemic administration easy, and more than often is essential to good oral bioavailability.

In the case of `CNC(=O)[C@@H](NC(=O)[C@H](CC(C)C)[C@](O)(CO)C(=O)NO)C(C)(C)C` [Example 3], the pKi is 8.64 in series [1], 8.04 in series [2] and 6.82 in series [3]. The compound also gave a pIC50 in series [4] of 5.09. Moreover, in “Aqueous solubility”, the solubility is greater than 15 mg/mL.

(Values after patent US6194451A, “Matrix metalloproteinase inhibitors” (Pharmacia & Upjohn S.p.A., priority 1997, dated 2001).)
